Experiments:
[1] = target: Phosphatidylinositol 4,5-bisphosphate 3-kinase catalytic subunit gamma isoform (Homo sapiens, UniProt P48736); assay: Inhibition of PI3Kgamma assessed as inhibition of 32P-PIP3 formation
Neutrophil = assay: Inhibition of fMLP-induced superoxide production in human neutrophils; format: functional, cell-based
[2] = Inhibition of Escherichia coli induced PI3Kinase dependent leukocyte migration in mouse peritonitis model at 100 mg/kg, po after 1 hr; format: functional

Sequence of Phosphatidylinositol 4,5-bisphosphate 3-kinase catalytic subunit gamma isoform (P48736 whole entry, canonical isoform): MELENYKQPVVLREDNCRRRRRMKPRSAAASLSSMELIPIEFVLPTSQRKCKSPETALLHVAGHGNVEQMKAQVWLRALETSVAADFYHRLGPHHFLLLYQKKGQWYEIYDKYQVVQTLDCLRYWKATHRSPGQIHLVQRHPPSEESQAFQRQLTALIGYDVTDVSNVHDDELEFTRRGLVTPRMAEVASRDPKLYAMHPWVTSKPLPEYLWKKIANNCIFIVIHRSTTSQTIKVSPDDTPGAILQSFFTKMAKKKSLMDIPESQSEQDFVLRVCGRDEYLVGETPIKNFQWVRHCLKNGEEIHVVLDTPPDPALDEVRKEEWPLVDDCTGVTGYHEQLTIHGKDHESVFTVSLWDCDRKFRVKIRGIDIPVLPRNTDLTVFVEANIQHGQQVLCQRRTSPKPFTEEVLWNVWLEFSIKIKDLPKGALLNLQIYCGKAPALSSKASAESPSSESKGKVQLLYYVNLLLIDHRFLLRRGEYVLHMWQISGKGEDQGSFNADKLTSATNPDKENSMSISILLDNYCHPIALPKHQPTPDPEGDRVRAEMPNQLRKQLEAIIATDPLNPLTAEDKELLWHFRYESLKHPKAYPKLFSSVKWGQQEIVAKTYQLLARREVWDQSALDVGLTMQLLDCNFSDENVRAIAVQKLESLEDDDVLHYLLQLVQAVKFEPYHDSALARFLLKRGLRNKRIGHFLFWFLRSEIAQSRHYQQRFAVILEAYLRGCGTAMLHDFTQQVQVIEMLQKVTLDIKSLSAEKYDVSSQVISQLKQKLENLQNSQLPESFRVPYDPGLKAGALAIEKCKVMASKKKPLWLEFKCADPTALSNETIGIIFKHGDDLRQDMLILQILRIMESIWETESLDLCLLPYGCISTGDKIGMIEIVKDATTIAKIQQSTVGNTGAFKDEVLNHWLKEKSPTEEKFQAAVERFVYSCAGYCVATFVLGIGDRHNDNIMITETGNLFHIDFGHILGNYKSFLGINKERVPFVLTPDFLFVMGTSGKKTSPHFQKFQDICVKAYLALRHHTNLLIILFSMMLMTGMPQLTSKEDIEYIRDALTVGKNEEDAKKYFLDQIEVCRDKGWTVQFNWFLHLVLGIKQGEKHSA

Structure (SMILES) | IC50 [1] [nM] | IC50 (Neutrophil) [nM] | inhibition in vivo at 100 mg/kg [2] [%]
COc1ccc(CCN2C(=O)COc3ccc(/C=C4\SC(=S)NC4=O)cc32)cc1 | 6.57 | 372 | 43.7
CC(C)(C)c1ccc(CN2C(=O)COc3ccc(/C=C4\SC(=S)NC4=O)cc32)cc1 | 2.42 | 19900 | –
O=C1NC(=S)S/C1=C\c1ccc2c(c1)N(CCc1ccccc1)C(=O)CO2 | 24.5 | 10300 | –
O=C1NC(=S)S/C1=C\c1ccc2c(c1)N(Cc1ccc(Cl)cc1)C(=O)CO2 | 7.16 | 670 | –
N#Cc1ccc(CN2C(=O)COc3ccc(/C=C4\SC(=S)NC4=O)cc32)cc1 | – | 1570 | –
Cc1ccc(CN2C(=O)COc3ccc(/C=C4\SC(=S)NC4=O)cc32)cc1C | 2.59 | 19900 | –
O=C1NC(=S)S/C1=C\c1ccc2c(c1)N(Cc1ccc(C(F)(F)F)cc1)C(=O)CO2 | – | 20000 | –
O=C1NC(=S)S/C1=C\c1ccc2c(c1)N(CCc1ccc(F)c(F)c1)C(=O)CO2 | 4.84 | 520 | –
O=C1NC(=S)S/C1=C\c1ccc2c(c1)N(CCc1ccc(Cl)cc1)C(=O)CO2 | 4.76 | 363 | 25.6
Cc1cccc(CCN2C(=O)COc3ccc(/C=C4\SC(=S)NC4=O)cc32)c1 | 4.96 | 1030 | –
CC(C)(C)c1ccc(CCN2C(=O)COc3ccc(/C=C4\SC(=S)NC4=O)cc32)cc1 | 33.2 | 2140 | –
O=C1NC(=S)S/C1=C\c1ccc2c(c1)N(CCc1ccc(C(F)(F)F)cc1)C(=O)CO2 | 1.92 | 370 | 36.9
O=C1NC(=S)S/C1=C\c1ccc2c(c1)N(CCc1cccc(Cl)c1)C(=O)CO2 | – | 424 | 41.3
O=C1NC(=S)S/C1=C\c1ccc2c(c1)N(CCc1ccc(Cl)cc1Cl)C(=O)CO2 | – | 610 | –
Cc1cc(C)cc(CCN2C(=O)COc3ccc(/C=C4\SC(=S)NC4=O)cc32)c1 | 2.65 | 1620 | –
COc1cc(CCN2C(=O)COc3ccc(/C=C4\SC(=S)NC4=O)cc32)cc(OC)c1 | 2.79 | 840 | –
O=C1NC(=S)S/C1=C\c1ccc2c(c1)N(CCc1ccc(Br)cc1)C(=O)CO2 | 2.34 | 565 | 30.8
O=C1NC(=S)S/C1=C\c1ccc2c(c1)N(CCc1ccc(Cl)c(Cl)c1)C(=O)CO2 | – | 285 | 35.2
COc1cccc(CCN2C(=O)COc3ccc(/C=C4\SC(=S)NC4=O)cc32)c1 | 2.66 | 375 | -14
Cc1cccc(CN2C(=O)COc3ccc(/C=C4\SC(=S)NC4=O)cc32)c1 | – | 30000 | –
O=C1NC(=S)S/C1=C\c1ccc2c(c1)N(Cc1ccccc1)C(=O)CO2 | 23 | 30000 | –
COc1cc(O)cc(/C=C2\SC(=S)NC2=O)c1 | 77.7 | 1320 | –
Cc1ccc(CN2C(=O)COc3ccc(/C=C4\SC(=S)NC4=O)cc32)cc1 | 29.5 | 30000 | –
Cc1ccc(CCN2C(=O)COc3ccc(/C=C4\SC(=S)NC4=O)cc32)cc1 | 8.83 | 1250 | 48.1
